Reference: article PMC11467779, “New anti-ovarian cancer quinolone derivatives acting by modulating microRNA processing machinery” (RSC Medicinal Chemistry, 2024)
“And” between values parts separate entries of the source, which are not always exact repeats. Equal values may be shown once.

Legend:
SKOV-3 cell line = test: Antiproliferative effect against the SKOV-3 cell line (GI50, cell count); format: cell-based, human; details: for GI50: 50% cell growth inhibition, 72 hours of treatment, cell count, ND = activity not dose dependent
Description: (§1) SKOV-3, A2780 and A2780 CIS were cultured and maintained, as previously described,[50] at 37 °C in RPMI 1640 medium (Euroclone) supplemented with 10% fetal bovine serum (FBS; Euroclone), L-glutamine and penicillin/streptomycin (SIGMA-ALDRICH). OVCA433, HEK-293T, HeLa, HCCLM3, SK-Hep-1, MCF-7, A549 and HCT-116 cells were maintained in DMEM medium (Euroclone) containing 10% FBS (Euroclone), L-glutamine and penicillin/streptomycin (SIGMA-ALDRICH). Wi-38 cells were cultured in DMEM medium (Euroclone) supplemented with 10% FBS (Euroclone), L-glutamine and penicillin/streptomycin (SIGMA-ALDRICH), and 1% non-essential amino acids (NEAA; Euroclone). The cultures were maintained in a constant temperature incubator at 37 °C with 5% CO2. […] Once cell adhesion had been promoted, the compounds were added to the culture medium. After 72 hours of treatment, the cells were counted, and the data analyzed by linear regression. Each experiment was carried out three times in triplicate and three separate cell counts were made for each sample. […] Afterwards, the concentration range was narrowed to the relative value obtained in the first evaluation in order to obtain an accurate value.

hTopII = target: T1, hTopII (Homo sapiens, UniProt P11388); test: Detection of hTOP2α cleavage complexes (cleavage assay); format: cell-based; details: 100 μM
T1 construct: endogenous in cells
T1 sequence (P11388 whole entry): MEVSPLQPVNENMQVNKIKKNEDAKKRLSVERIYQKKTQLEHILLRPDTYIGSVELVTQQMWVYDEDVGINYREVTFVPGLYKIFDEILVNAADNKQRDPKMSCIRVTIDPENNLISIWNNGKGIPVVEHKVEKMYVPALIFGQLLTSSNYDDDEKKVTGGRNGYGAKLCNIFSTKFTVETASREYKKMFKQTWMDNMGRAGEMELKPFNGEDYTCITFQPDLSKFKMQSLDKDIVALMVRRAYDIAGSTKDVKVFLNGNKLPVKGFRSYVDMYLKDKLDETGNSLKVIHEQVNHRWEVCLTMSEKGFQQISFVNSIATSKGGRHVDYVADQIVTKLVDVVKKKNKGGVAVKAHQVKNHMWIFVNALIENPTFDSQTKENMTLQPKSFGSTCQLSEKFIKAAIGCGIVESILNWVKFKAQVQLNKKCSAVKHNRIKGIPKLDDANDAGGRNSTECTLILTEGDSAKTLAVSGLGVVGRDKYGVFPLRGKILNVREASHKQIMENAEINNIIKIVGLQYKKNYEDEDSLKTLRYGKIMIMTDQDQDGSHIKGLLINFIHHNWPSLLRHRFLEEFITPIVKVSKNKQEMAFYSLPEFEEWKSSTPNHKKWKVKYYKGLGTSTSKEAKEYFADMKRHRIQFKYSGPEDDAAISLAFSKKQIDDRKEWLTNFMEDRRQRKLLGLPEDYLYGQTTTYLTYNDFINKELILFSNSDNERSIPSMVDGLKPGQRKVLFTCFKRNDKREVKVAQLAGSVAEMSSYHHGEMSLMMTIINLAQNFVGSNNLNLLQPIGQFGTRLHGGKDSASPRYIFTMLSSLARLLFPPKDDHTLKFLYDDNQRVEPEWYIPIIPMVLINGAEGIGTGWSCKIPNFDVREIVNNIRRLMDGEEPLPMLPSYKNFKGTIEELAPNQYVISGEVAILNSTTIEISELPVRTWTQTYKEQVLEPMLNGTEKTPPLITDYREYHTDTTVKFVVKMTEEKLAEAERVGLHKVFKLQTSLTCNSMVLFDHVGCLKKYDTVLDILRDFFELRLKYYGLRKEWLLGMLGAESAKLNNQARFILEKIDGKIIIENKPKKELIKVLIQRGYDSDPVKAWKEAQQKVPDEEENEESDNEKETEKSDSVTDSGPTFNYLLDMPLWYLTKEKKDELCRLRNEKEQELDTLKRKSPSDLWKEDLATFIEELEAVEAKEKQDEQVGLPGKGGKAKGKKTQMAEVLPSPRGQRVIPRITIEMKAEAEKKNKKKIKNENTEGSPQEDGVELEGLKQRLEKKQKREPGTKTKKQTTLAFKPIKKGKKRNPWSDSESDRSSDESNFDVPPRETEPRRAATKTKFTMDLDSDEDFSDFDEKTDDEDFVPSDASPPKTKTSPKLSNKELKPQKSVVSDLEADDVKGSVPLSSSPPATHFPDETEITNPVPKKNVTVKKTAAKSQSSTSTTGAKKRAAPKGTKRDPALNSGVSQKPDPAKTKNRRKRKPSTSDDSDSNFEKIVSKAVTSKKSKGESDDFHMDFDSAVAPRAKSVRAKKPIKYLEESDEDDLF
Description: (§2) After compound treatments, 1 × 10^6 human cells in 35 mm dish per sample were washed with 1× phosphate-buffered saline (PBS) and lysed with 600 μL of DNAzol (Invitrogen), followed by precipitation with 300 μL of 200 proof ethanol. The nucleic acids were collected, washed with 75% ethanol, resuspended in 200 μL of TE buffer, and then heated at 65 °C for 15 min, followed by shearing with sonication (40% output for 10 s pulse and 10 s rest for four times). The samples were centrifuged at 15 000 rpm for 5 min at 4 °C, and the supernatant were collected. 1 μL of each sample was removed for spectrophotometric measurement of absorbance at 260 nm to quantitate DNA content (NanoDrop). 2 μg of each sample was subjected to slot-blot for immunoblotting using anti-hTOP1 antibody (BD Pharmingen, 556597) and anti-hTOP2α antibody (Santa Cruz biotechnology, 365916).[51]

hTopI = target: T2, hTopI (Homo sapiens, UniProt P11387); test: Detection of hTOP1 cleavage complexes (cleavage assay); format: cell-based; details: 100 μM
T2 construct: endogenous in cells
T2 sequence (P11387 whole entry): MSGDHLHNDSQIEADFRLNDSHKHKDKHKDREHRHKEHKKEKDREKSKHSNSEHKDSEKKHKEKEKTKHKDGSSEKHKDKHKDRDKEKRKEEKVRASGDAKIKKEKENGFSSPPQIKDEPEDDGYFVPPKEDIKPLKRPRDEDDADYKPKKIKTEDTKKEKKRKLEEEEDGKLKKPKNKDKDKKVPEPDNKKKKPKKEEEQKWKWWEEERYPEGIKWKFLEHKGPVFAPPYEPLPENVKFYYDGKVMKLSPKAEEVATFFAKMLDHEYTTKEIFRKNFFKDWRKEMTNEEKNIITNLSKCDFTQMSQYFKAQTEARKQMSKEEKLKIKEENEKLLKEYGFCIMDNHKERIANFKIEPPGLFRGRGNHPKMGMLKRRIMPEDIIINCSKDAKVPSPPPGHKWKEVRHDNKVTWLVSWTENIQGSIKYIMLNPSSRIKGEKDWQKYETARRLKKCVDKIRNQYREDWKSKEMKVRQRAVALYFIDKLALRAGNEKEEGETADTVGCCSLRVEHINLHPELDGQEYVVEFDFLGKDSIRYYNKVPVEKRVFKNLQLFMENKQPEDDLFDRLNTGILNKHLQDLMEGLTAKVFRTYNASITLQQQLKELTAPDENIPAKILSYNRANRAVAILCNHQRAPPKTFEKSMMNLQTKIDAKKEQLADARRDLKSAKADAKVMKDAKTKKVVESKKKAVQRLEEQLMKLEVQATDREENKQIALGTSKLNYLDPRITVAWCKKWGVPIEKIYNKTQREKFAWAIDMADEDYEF
Description: as §2

[1] = Cytotoxicity against non-tumor Wi-38 cells (CC50, cell count); format: cell-based; details: human, Wi-38 cells (non-tumor), 50% cytotoxicity concentration, 72 hours of treatment
Description: as §1

miR-21-5p biogenesis = test: miR-21-5p luciferase reporter (psi-R21 / psi-CTRL) in HeLa cells; format: cell-based, human; details: 50 μM, 6 hours
Description: HeLa cells were transfected with 10 ng of psi-R21 or psi-CTRL using Lipofectamine™ 2000 (Thermo Fisher Scientific) and after 48 hours were treated with either enoxacin or 33 at 20 μM and 50 μM. After 6 hours Renilla luciferase (RLuc) and firefly luciferase (FLuc) activities were measured using the Dual-Luciferase® Reporter Assay System (Promega), following the manufacturer's instructions, and GloMax® Discover Microplate Reader (Promega).
The binding site for miR-21 was cloned into psiCHECK™-2 Vector (Promega), downstream the Renilla cDNA, by inverted PCR using the following oligonucleotides: 21MRE_FW […]; 21MRE_REV […]. The resulting construct was named psi-R21.

OVCA433 = test: Antiproliferative effect against OVCA433 (GI50); format: cell-based; details: Homo sapiens, 72 hours of treatment, cell count
Description: as §1

[2] = system: several cancer cell lines; set-up: method as in PMID 21368194; details: wide panel of cancer cells; read-out: GI50 against several cancer cell lines; cited from earlier work
[3] = system: shRNA to siRNA maturation (GAPDH mRNA); test: RNAi enhancing activity (shRNA to siRNA maturation, GAPDH mRNA in HEK-293T_shGAPDH); format: cell-based, human; details: 50 μM, 48 hours
Description: HEK-293T_shSCR and HEK-293T_shGAPDH were treated with 50 μM of enoxacin and 33 for 48 hours before RNA extraction and expression analysis.
Lentiviral particles were produced by calcium phosphate transient transfection of HEK-293T cells with specific lentiviral plasmids (shGAPDH: TRCN0000445616 and shSCR: TRCN0000015937 from SIGMA-ALDRICH) together with the packaging plasmids (pLP1and pLP2) and the envelope plasmid pLP/VSVG. For each lentiviral plasmid one 150 mm plate of HEK293T cells was used for transfection. After 14–16 hours the medium was replaced with complete medium supplemented with 1 mM sodium butyrate (SIGMA-ALDRICH). The collection of medium containing lentiviral particles occurs 48 h and 72 h after transfection; complete medium supplemented with sodium butyrate was added after the first collection. […]
Total RNA was extracted using the Direct-zol RNA MiniPrep kit (Zymo Research) with on-column DNase treatment, according to the manufacturer's instructions. Reverse transcription was carried out with SuperScript VILO cDNA Synthesis Kit (Life Technologies) and the cDNA samples were analyzed by qRT-PCR using PowerUp SYBR Green Master Mix (Thermo Fisher Scientific). For miR-21 expression analysis total RNA was retrotranscribed using miRCURY® LNA® RT Kit (Qiagen) and the cDNA was analyzed by using miRCURY® LNA® miRNA PCR Assay (Qiagen). […]

miR-21 = miR-21 expression in HeLa cells (qRT-PCR); format: cell-based, human; details: 50 μM, 6 hours
Description: Total RNA was extracted using the Direct-zol RNA MiniPrep kit (Zymo Research) with on-column DNase treatment, according to the manufacturer's instructions. Reverse transcription was carried out with SuperScript VILO cDNA Synthesis Kit (Life Technologies) and the cDNA samples were analyzed by qRT-PCR using PowerUp SYBR Green Master Mix (Thermo Fisher Scientific). For miR-21 expression analysis total RNA was retrotranscribed using miRCURY® LNA® RT Kit (Qiagen) and the cDNA was analyzed by using miRCURY® LNA® miRNA PCR Assay (Qiagen). The oligonucleotides used are the following: GAPDH_FW […]; GAPDH_REV […]; ATP5O_FW […]; ATP5O_REV […]; hsa-miR-21-5p miRCURY LNA miRNA PCR Assay (YP00204230); U6 snRNA (v2) miRCURY LNA miRNA PCR Assay (YP02119464).

A2780 = test: Antiproliferative effect against A2780 (GI50); format: cell-based; details: Homo sapiens, 72 hours of treatment, cell count
Description: as §1

GI50 (SKOV-3 cell line) | GI50 (SKOV-3 cell line; Homo sapiens, SK-OV-3, 72 h) | GI50 SKOV-3, fold lower than enoxacin (SKOV-3 cell line; versus enoxacin) | trapping/inhibition of hTopII (cleavage assay) (hTopII) | trapping/inhibition of hTopI (cleavage assay) (hTopI) | GI50 (A2780) | Compound | CC50 at 72 h [1] | miRNA enhancing effect: Renilla luciferase activity, psi-R21 construct (miR-21-5p biogenesis) | GI50 (OVCA433) | GI50 [2] | RNAi enhancing effect (GAPDH mRNA decrease) [3] | miR-21 level in HeLa cells (miR-21)
37.7 ± 3.38 µM | 38 µM | about 3 fold | did not trap human topoisomerases | did not trap human topoisomerases |  | Cc1c(N2CCc3ccccc3C2)c(N)cc2c(=O)c(C(=O)O)cn(C3CC3)c12 [Compound 5] | 38.5 ± 29 µM |  |  |  |  | 
 | 125 µM |  |  |  | 142 ± 8.73 µM | CCn1cc(C(=O)O)c(=O)c2cc(F)c(N3CCNCC3)nc21 [Enoxacin, enoxacin, reference compound] | 216 ± 123 µM | miRNA enhancing effect | 118 ± 8.89 µM | ~125 µM and 125 µM | comparable | Upregulation of miR-21
